Experimental data: patent US10189840B2, “Substituted tricyclic heterocyclic compounds” (BRISTOL-MYERS SQUIBB COMPANY, priority 2015, dated 2019)

Molecular target: TNFα (Homo sapiens (Human), UniProt P01375)
Assay: TNF induced HEK-Blue assay
Format: cell-based
Conditions: TNFα 0.5 ng/ml; HEK-Blue-CD40L cells, NF-κB-driven secreted alkaline phosphatase reporter; 18 h
Procedure: Test compounds serially diluted in DMSO were plated in an assay plate (Labcyte, Cat. #LP-0200) at final concentrations ranging from 0.004 μM to 25 μM. TNFα (final concentration 0.5 ng/ml) or CD40L (final concentration 30 ng/ml) in assay buffer [DMEM, 4.5 g/l glucose (Gibco, Cat. 21063-029), 10% FBS (Sigma, F4135), 1% Penicillin-Streptomycin (Gibco, Cat. 15140-122), 1% Anti-Anti (Gibco, Cat. 15240-112) and 2 mM L-glutamine (Gibco, Cat. 25030-081)] was then added to the assay plate. After a 30 minute pre-incubation at 37° C. and 5% CO2, HEK-Blue-CD40L cells (InvivoGen, Cat. Code hkb-cd40) containing a NF-κB-driven secreted alkaline phosphatase reporter gene were seeded into the assay plate at a density of 20,000 cells per well. This plate was then incubated for 18 h at 37° C. and 5% CO2. Secreted alkaline phosphatase expression was measured using QUANTI-Blue (InvivoGen, Cat. Code rep-qb1) according to manufacturer's specifications and the assay plate was read on a PerkinElmer Envision at 620 nm.
Inhibition data for the test compound over a range of concentrations was plotted as percentage inhibition of the test compound (100%=maximum inhibition). IC50 values were determined after correcting for background [(sample read−mean of low control)/(mean of high control−mean of low control)] where by the low control is DMSO without stimulation and high control is DMSO with stimulation. The IC50 is defined as the concentration of test compound which produces 50% inhibition and was quantified using the 4 parameter logistic equation to fit the data.
Table 5 lists the IC50 values measured in the TNF induced HEK-Blue assay for Examples 1 to 40 of this invention.

Chain of TNFα (P01375 77-233): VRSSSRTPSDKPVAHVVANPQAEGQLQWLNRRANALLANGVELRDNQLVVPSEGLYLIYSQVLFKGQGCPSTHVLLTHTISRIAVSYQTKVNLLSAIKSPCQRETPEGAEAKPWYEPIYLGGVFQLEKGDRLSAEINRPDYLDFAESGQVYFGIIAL

Row | IC50 [nM] | SMILES
1 | < 1000 | CC(C)(O)c1ccc(-c2ccc3nc4n(c3n2)C(c2ccccc2C(F)(F)F)CC4)cc1 (racemic) [Example 25 (rac), 2-(4-(8-(2-(Trifluoromethyl)phenyl)-7,8-dihydro-6H-pyrrolo[2′,1′:2,3]imidazo[4,5-b]pyridin-2-yl)phenyl)propan-2-ol]
2 | < 1000 | CC(C)(O)c1ccc(-c2ccc3nc4n(c3n2)C(c2ccccc2OC(F)F)CC4)cc1 (racemic) [Example 26 (rac), 2-(4-(8-(2-(difluoromethoxy)phenyl)-7,8-dihydro-6H-pyrrolo[2′,1′:2,3]imidazo[4,5-b]pyridin-2-yl)phenyl)propan-2-ol]
3 | < 1000 | CC(C)(O)c1ncc(-c2ccc3nc4n(c3n2)C(c2ccccc2OC(F)F)CC4)cn1 (racemic) [Example 27 (rac), 2-(5-(8-(2-(difluoromethoxy)phenyl)-7,8-dihydro-6H-pyrrolo[2′,1′:2,3]imidazo[4,5-b]pyridin-2-yl)pyrimidin-2-yl)propan-2-ol]
4 | < 1000 | FC(F)Oc1ccccc1C1CCc2nc3ccc(-c4cnc(N5CCOCC5)nc4)nc3n21 (racemic) [Example 28 (rac), 4-(5-(8-(2-(difluoromethoxy)phenyl)-7,8-dihydro-6H-pyrrolo[2′,1′:2,3]imidazo[4,5-b]pyridin-2-yl)pyrimidin-2-yl)morpholine]
5 | 1000 to 10000 | COc1ccc(-c2ccc3nc4n(c3n2)C(c2ccccc2OC(F)F)CC4)cn1 (racemic) [Example 29 (rac), 8-(2-(difluoromethoxy)phenyl)-2-(6-methoxypyridin-3-yl)-7,8-dihydro-6H-pyrrolo[2′,1′:2,3]imidazo[4,5-b]pyridine]
6 | 1000 to 10000 | Cn1cc(-c2ccc3nc4n(c3n2)C(c2ccccc2OC(F)F)CC4)cn1 (racemic) [Example 30 (rac), 8-(2-(difluoromethoxy)phenyl)-2-(1-methyl-1H-pyrazol-4-yl)-7,8-dihydro-6H-pyrrolo[2′,1′:2,3]imidazo[4,5-b]pyridine]
7 | < 1000 | CC(C)(O)c1ccc(-c2ccc3nc4n(c3n2)C(c2c(F)cccc2C(F)(F)F)CC4)cc1 (racemic) [Example 32 (e2), 2-(4-(8-(2-fluoro-6-(trifluoromethyl)phenyl)-7,8-dihydro-6H-pyrrolo[2′,1′:2,3]imidazo[4,5-b]pyridin-2-yl)phenyl)propan-2-ol]
8 | < 1000 | CC(C)(O)c1ccc(-c2ccc3nc4n(c3n2)C(c2c(F)cccc2C(F)(F)F)CC4)cc1 (racemic) [Example 32 (rac), 2-(4-(8-(2-fluoro-6-(trifluoromethyl)phenyl)-7,8-dihydro-6H-pyrrolo[2′,1′:2,3]imidazo[4,5-b]pyridin-2-yl)phenyl)propan-2-ol]
9 | < 1000 | CC(C)(O)c1ccc(-c2ccc3nc4n(c3n2)C(c2cc(F)ccc2C(F)(F)F)CC4)cc1 (racemic) [Example 34 (rac), 2-(4-(8-(5-fluoro-2-(trifluoromethyl)phenyl)-7,8-dihydro-6H-pyrrolo[2′,1′:2,3]imidazo[4,5-b]pyridin-2-yl)phenyl)propan-2-ol]
10 | 1000 to 10000 | COc1ccccc1C1CCc2nc3ccc(-c4cnc(N5CCN(CC(=O)O)CC5)nc4)nc3n21 (racemic) [Example 35 (rac), 2-(4-(5-(8-(2-methoxyphenyl)-7,8-dihydro-6H-pyrrolo[2′,1′:2,3]imidazo[4,5-b]pyridin-2-yl)pyrimidin-2-yl)piperazin-1-yl)acetic acid]
11 | < 1000 | CC(C)(O)c1ccc(-c2ccc3nc4n(c3n2)C(c2ccccc2C(F)(F)F)CC4O)cc1 (single isomer, unassigned) [Example 1 (e1), 2-(4-(2-Hydroxypropan-2-yl)phenyl)-8-(2-(trifluoromethyl)phenyl)-7,8-dihydro-6H-pyrrolo[2′,1′:2,3]imidazo[4,5-b]pyridin-6-ol]
12 | 1000 to 10000 | CC(C)(O)c1ccc(-c2ccc3nc4n(c3n2)C(c2ccccc2C(F)(F)F)CC4O)cc1 (single isomer, unassigned) [Example 1 (e2), 2-(4-(2-Hydroxypropan-2-yl)phenyl)-8-(2-(trifluoromethyl)phenyl)-7,8-dihydro-6H-pyrrolo[2′,1′:2,3]imidazo[4,5-b]pyridin-6-ol]
